According to US20240132498A1, “CRYSTALLINE FORMS OF 5-(3,4-DIFLUOROBENZYL)-8-((1R,4R)-4-METHYLCYCLOHEXYL)-6,9-DIOXO-2,5,8-TRIAZASPIRO[3.5]NONANE-2-CARBALDEHYDE” (Cytokinetics, Incorporated, priority 2022, published 2024):
Values after ≈ are worked out from the molar mass of the structure shown. Like-named read-outs stand apart in the source and are kept apart here. Each block holds one compound with its values, some of them ahead of it.

Tests used:
[1] = Monkey cassette dosing IV pharmacokinetics; assay type: in vivo; settings: male, plasma
[2] = target: T1, CYP2C8 (Homo sapiens, UniProt P10632); experiment: Time-dependent inhibition of CYP450 enzymes in human liver microsomes: CYP2C8; assay type: in vitro ADME
T1 construct: from tissue; host or cells: pooled human liver microsomes
T1 sequence (P10632 1-490): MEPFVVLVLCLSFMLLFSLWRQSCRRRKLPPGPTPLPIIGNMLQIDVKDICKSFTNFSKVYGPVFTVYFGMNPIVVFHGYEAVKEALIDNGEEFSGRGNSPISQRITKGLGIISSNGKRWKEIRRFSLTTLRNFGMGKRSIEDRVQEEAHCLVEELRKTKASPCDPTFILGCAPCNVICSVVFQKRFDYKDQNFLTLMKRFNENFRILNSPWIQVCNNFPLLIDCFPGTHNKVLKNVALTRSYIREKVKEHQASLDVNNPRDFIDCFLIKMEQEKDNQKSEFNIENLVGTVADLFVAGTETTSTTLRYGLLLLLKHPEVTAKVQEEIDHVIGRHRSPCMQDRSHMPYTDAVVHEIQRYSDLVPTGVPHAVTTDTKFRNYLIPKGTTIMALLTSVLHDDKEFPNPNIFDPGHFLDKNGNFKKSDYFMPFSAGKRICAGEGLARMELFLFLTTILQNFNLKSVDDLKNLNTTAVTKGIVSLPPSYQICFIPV
Experimental: An assessment of the time-dependent Inhibitory Potential of the test compounds against Principal Human Cytochrome P450 Isozymes using Human Liver Microsomes was also carried out using standard methods (Grimm et al, Drug Metab. Dispos., Jul; 37(7):1355-70. doi: 10.1124/dmd.109.026716, 2009). Pooled human microsomes and selective CYP probe substrates were used for in vitro assessment of test compounds at 25 and 50 μM as time-dependent inhibitors of […] human hepatic cytochrome P450 isozymes (CYP1A2, 2B6, 2C9, 2C19, 2D6, and 3A4). LC-MS/MS was used to quantify metabolite formation. The inhibition of each P450 enzyme in human liver microsomes was measured as the percentage decrease in the activity of marker metabolite formation as measured by LC-MS/MS compared to non-inhibited controls (=100% activity) at time zero and after 30 minutes incubation. The occurrence of any time dependent inhibition was then expressed as the fold change in enzyme activity at time zero relative to the activity after 30 minutes incubation. The time dependent inhibition for the compound 5-(3,4-difluorobenzyl)-8-((1 r,4r)-4-methylcyclohexyl)-6,9-dioxo-2,5, 8-triazaspiro [3.5]nonane-2-carbaldehyde (Compound 1) against CYP1A2, […], CYP2C8, CYP2C9, CYP2C19, CYP2D6, CYP3A4-M and CYP3A4-T is shown in Table B-12.

[3] = Long-term storage stability of the solid (1, 3, 6 months); assay type: physicochemical
Description: For long-term (1 month or longer) stability experiments, solid material was placed into LDPE bags and sealed in a HDPE container at elevated storage conditions, unless otherwise stated.

[4] = Kinetic solubility of crystalline Form II in solvents; assay type: physicochemical; settings: for solubility at 4 h: 25 °C, thermodynamic from solid; for Solubility: 25° C., 4 hours
Experimental: The solubility of crystalline Form II was analyzed with 15 types of common solvents. Sufficient amount of Form II was suspended in 0.5 mL solvent for a maximum anticipated concentration of Ca. =10-100 mg/ml of the free Form II. The resulting suspensions were then shaken in a platform shaker at 25° C./ 750 rpm for 4 hours. After equilibration, the appearance was recorded, and the pH of the saturated solution was measured for aqueous samples only. Samples were then centrifuged for 5 minutes at 13.4 krpm before dilution with MeCN except for the samples that were initially diluted in n-heptane, which were then diluted in 2-propanol rather than MeCN.
All diluted samples were then analyzed by HPLC. Samples were further diluted based on appearance and the maximum anticipated concentration […]. All diluted samples were injected at 10, 15 and 20 piL to obtain peak areas within the calibration curve as a diluted concentration of Ca. 0.1 mg/ml was trying to be achieved.
Quantitation was measured by HPLC with reference to a standard solution of approximately 0.15 mg/ml in MeCN. Different volumes of the standard diluted and undiluted sample solutions were injected. The solubility was calculated using the peak areas determined by integration of the peak found at the same retention time as the principal peak in the standard injection.

clearance [1]: 13.1 mL/min/kg
half-life [1]: 8.69 h
Vd ([1]; read-out: Vss): 8.8 L/kg
(% Activity NADPH T0)/(% Activity NADPH T30) ([2]; CYP2C8, 25 μM): 1.0
(% Activity NADPH T0)/(% Activity NADPH T30) ([2]; CYP2C8, 50 μM): 1.2
activity at 30 min, 25 µM ([2]; human, pooled human liver microsomes, CYP2C8, 25 μM, 30 minutes incubation, read-out: % Activity NADPH T30): 80%
activity at 0 min, 25 µM ([2]; human, pooled human liver microsomes, CYP2C8, 25 μM, time zero, read-out: % Activity NADPH T0): 79%
activity at 30 min, 50 µM ([2]; human, pooled human liver microsomes, CYP2C8, 50 μM, 30 minutes incubation, read-out: % Activity NADPH T30): 79%
activity at 0 min, 50 µM ([2]; human, pooled human liver microsomes, CYP2C8, 50 μM, time zero, read-out: % Activity NADPH T0): 97%
SMILES: C[C@H]1CC[C@H](N2CC(=O)N(Cc3ccc(F)c(F)c3)C3(CN(C=O)C3)C2=O)CC1 [Compound 1, 5-(3,4-difluorobenzyl)-8-((1r,4r)-4-methylcyclohexyl)-6,9-dioxo-2,5,8-triazaspiro[3.5]nonane-2-carbaldehyde]

Assay ([3]; 25° C./60% RH, 1 month): 99.0 % w/w
Purity ([3]; 25° C./60% RH, 1 month): 99.1%
Total Impurities ([3]; 25° C./60% RH, 1 month): 0.92%
Water Content ([3]; 25° C./60% RH, 1 month): 0.02 % w/w
Assay ([3]; 25° C./60% RH, 3 months): 98.8 % w/w
Purity ([3]; 25° C./60% RH, 3 months): 99.1%
Total Impurities ([3]; 25° C./60% RH, 3 months): 0.91%
Water Content ([3]; 25° C./60% RH, 3 months): 0.01 % w/w
Assay ([3]; 25° C./60% RH, 6 months): 99.2 % w/w
Total Impurities ([3]; 25° C./60% RH, 6 months): 0.93%
Water Content ([3]; 25° C./60% RH, 6 months): 0.09 % w/w
XRPD ([3]; 25° C./60% RH, 6 months): Form II
Assay ([3]; 40° C./75% RH, 1 month): 98.6 % w/w
Purity ([3]; 40° C./75% RH, 1 month): 99.1%
Total Impurities ([3]; 40° C./75% RH, 1 month): 0.92%
Water Content ([3]; 40° C./75% RH, 1 month): 0.01 % w/w
Assay ([3]; 40° C./75% RH, 3 months): 97.9 % w/w
Purity ([3]; 40° C./75% RH, 3 months): 99.1%
Total Impurities ([3]; 40° C./75% RH, 3 months): 0.9%
Water Content ([3]; 40° C./75% RH, 3 months): 0.01 % w/w
Assay ([3]; 40° C./75% RH, 6 months): 99.5 % w/w
Total Impurities ([3]; 40° C./75% RH, 6 months): 0.91%
Water Content ([3]; 40° C./75% RH, 6 months): 0.06 % w/w
XRPD ([3]; 40° C./75% RH, 6 months): Form II
Assay ([3]; Initial): 99.1 % w/w
Purity ([3]; Initial): 99.1%
Total Impurities ([3]; Initial): 0.91%
Water Content ([3]; Initial): 0.02 % w/w
XRPD ([3]; Initial): Form II
solubility at 4 h ([4]; 2-BuOH, organic solvent or mixture, 2-BuOH, read-out: Average Solubility): 11 mg/mL (≈ 27.1 mM)
solubility at 4 h ([4]; 2-BuOH, organic solvent or mixture, 2-BuOH, single replicate, read-out: Solubility): 11 mg/mL (≈ 27.1 mM)
solubility at 4 h ([4]; 2-Me-THF, organic solvent or mixture, 2-Me-THF, read-out: Average Solubility): 24 mg/mL (≈ 59.2 mM)
solubility at 4 h ([4]; 2-Me-THF, organic solvent or mixture, 2-Me-THF, single replicate, read-out: Solubility): 24 mg/mL (≈ 59.2 mM)
solubility at 4 h ([4]; Acetone, organic solvent or mixture, Acetone, single replicate, read-out: Solubility): > 101 mg/mL
solubility at 4 h ([4]; DI Water, pH 8.7, water, DI Water, final pH 8.7, read-out: Average Solubility): ~0.41 mg/mL (≈ 1.01 mM)
solubility at 4 h ([4]; DI Water, pH 8.7, water, DI Water, final pH 8.7, single replicate, read-out: Solubility): 0.5 mg/mL (≈ 1.23 mM)
Solubility ([4]; DI Water, final pH 8.7, single replicate): 0.31 mg/mL (≈ 0.765 mM)
solubility at 4 h ([4]; DMSO, organic solvent or mixture, DMSO, read-out: Average Solubility): > 100 mg/mL
solubility at 4 h ([4]; DMSO, organic solvent or mixture, DMSO, single replicate, read-out: Solubility): > 101 mg/mL
Solubility ([4]; DMSO, single replicate): >101.2 mg/mL
solubility at 4 h ([4]; EtOH, organic solvent or mixture, EtOH, read-out: Average Solubility): ~24 mg/mL (≈ 59.2 mM)
solubility at 4 h ([4]; EtOH, organic solvent or mixture, EtOH, single replicate, read-out: Solubility): 25 mg/mL (≈ 61.7 mM)
Solubility ([4]; EtOH, single replicate): 23 mg/mL (≈ 56.7 mM)
solubility at 4 h ([4]; IPA, organic solvent or mixture, IPA, read-out: Average Solubility): 9.8 mg/mL (≈ 24.2 mM)
solubility at 4 h ([4]; IPA, organic solvent or mixture, IPA, single replicate, read-out: Solubility): 9.8 mg/mL (≈ 24.2 mM)
solubility at 4 h ([4]; Isopropyl acetate, organic solvent or mixture, Isopropyl acetate, single replicate, read-out: Solubility): 22 mg/mL (≈ 54.3 mM)
solubility at 4 h ([4]; MIBK, organic solvent or mixture, MIBK, read-out: Average Solubility): 39 mg/mL (≈ 96.2 mM)
solubility at 4 h ([4]; MIBK, organic solvent or mixture, MIBK, single replicate, read-out: Solubility): 39 mg/mL (≈ 96.2 mM)
solubility at 4 h ([4]; MeCN, organic solvent or mixture, MeCN, read-out: Average Solubility): > 100 mg/mL
solubility at 4 h ([4]; MeCN, organic solvent or mixture, MeCN, single replicate, read-out: Solubility): > 101 mg/mL
Solubility ([4]; MeCN, single replicate): >100.6 mg/mL
solubility at 4 h ([4]; MeOH, organic solvent or mixture, MeOH, read-out: Average Solubility): > 100 mg/mL
solubility at 4 h ([4]; MeOH, organic solvent or mixture, MeOH, single replicate, read-out: Solubility): > 100 mg/mL
Solubility ([4]; MeOH, single replicate): >100.6 mg/mL
solubility at 4 h ([4]; THF, organic solvent or mixture, THF, read-out: Average Solubility): > 100 mg/mL
solubility at 4 h ([4]; THF, organic solvent or mixture, THF, single replicate, read-out: Solubility): > 102 mg/mL
Solubility ([4]; THF, single replicate): >101.2 mg/mL
solubility at 4 h ([4]; Tert-Butylmethyl ether, organic solvent or mixture, Tert-Butylmethyl ether, read-out: Average Solubility): 1.12 mg/mL (≈ 2.76 mM)
solubility at 4 h ([4]; Tert-Butylmethyl ether, organic solvent or mixture, Tert-Butylmethyl ether, single replicate, read-out: Solubility): 1.12 mg/mL (≈ 2.76 mM)
solubility at 4 h ([4]; Toluene, organic solvent or mixture, Toluene, read-out: Average Solubility): 9.6 mg/mL (≈ 23.7 mM)
solubility at 4 h ([4]; Toluene, organic solvent or mixture, Toluene, single replicate, read-out: Solubility): 9.5 mg/mL (≈ 23.4 mM)
Solubility ([4]; Toluene, single replicate): 9.6 mg/mL (≈ 23.7 mM)
solubility at 4 h ([4]; acetone, organic solvent or mixture, Acetone, read-out: Average Solubility): > 100 mg/mL
solubility at 4 h ([4]; isopropyl acetate, organic solvent or mixture, Isopropyl acetate, read-out: Average Solubility): 22 mg/mL (≈ 54.3 mM)
SMILES: C[C@H]1CC[C@H](N2CC(=O)N(Cc3ccc(F)c(F)c3)C3(CN(C=O)C3)C2=O)CC1 [Form II, 5-(3,4-difluorobenzyl)-8-((1r,4r)-4-methylcyclohexyl)-6,9-dioxo-2,5,8-triazaspiro[3.5]nonane-2-carbaldehyde]
